For one test, the target named is T1, THR beta-LBD (Homo sapiens, UniProt P10828).
T1 construct: THR beta-LBD (the final concentration is 0.5 nM) was added to the 384-well assay plate; purchased Invitrogen PV4686
T1 sequence (P10828 217-461 limits assumed): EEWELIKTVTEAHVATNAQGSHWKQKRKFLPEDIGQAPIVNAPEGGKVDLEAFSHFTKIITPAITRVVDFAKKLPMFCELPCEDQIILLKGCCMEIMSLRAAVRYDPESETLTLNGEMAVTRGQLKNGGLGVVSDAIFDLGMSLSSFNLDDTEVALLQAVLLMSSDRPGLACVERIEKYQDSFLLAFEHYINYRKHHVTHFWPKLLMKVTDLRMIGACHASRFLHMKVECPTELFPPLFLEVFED
The test can be described thus: THR-β Coactivator Peptide Recruitment Assay (LanthaScreen TR-FRET). The format is biochemical. The following applies: TR-FRET coactivator recruitment, THR beta-LBD 0.5 nM; for EC50: read-out: THRβ EC50. A digest of the protocol:
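Agonist-driven coactivator recruitment read as a 520/495 nm TR-FRET emission ratio after 2 h at room temperature. Final concentrations: THR beta-LBD 0.5 nM, fluorescein-SRC2-2 peptide 0.1 nM, terbium anti-GST antibody 2 nM. EC50 from four-parameter dose-response fitting.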
Background: TR-FRET usually uses a lanthanide donor and a delayed reading to cut background.

For another test, the target named is T2, THR alpha-LBD (Homo sapiens, UniProt P10827).
T2 construct: except that THR alpha-LBD of a final concentration 0.25 nM was used; purchased Invitrogen PV4687
T2 sequence (P10827 163-410 isoform P10827-2 limits assumed, other chains not shown): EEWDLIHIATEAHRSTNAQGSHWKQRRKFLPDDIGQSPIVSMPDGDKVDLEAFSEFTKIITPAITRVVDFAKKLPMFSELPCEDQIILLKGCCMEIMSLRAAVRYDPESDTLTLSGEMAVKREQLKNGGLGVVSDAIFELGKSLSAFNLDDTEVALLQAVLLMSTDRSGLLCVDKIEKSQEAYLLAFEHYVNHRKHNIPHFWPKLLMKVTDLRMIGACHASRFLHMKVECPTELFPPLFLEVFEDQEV
The test can be described thus: THR-α Coactivator Peptide Recruitment Assay (LanthaScreen TR-FRET). The following applies: TR-FRET coactivator recruitment, THR alpha-LBD 0.25 nM; for EC50: read-out: THRα EC50. The format is biochemical. In short, it runs like this: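 TR-FRET coactivator recruitment with THR alpha-LBD at 0.25 nM final, Fluorescein-SRC2-2 peptide 0.1 nM and Tb-labeled anti-GST antibody 2 nM; 2 h incubation at room temperature. 520/495 nm emission ratio fitted to a four-parameter sigmoidal curve to give EC50.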

The term EC50 denotes the concentration at which the effect is half-maximal.

Molecules are shown by their SMILES.

In the case of `CS(=O)(=O)CC1(NS(=O)(=O)c2cc(Oc3c(Cl)cc(-n4nc(C(F)F)c(=O)[nH]c4=O)cc3Cl)ccc2O)CC1` [Compound 94, 5-[2,6-dichloro-4-[6-(difluoromethyl)-3,5-dioxo-1,2,4-triazin-2-yl]phenoxy]-2-hydroxy-N-[1-(methylsulfonylmethyl)cyclopropyl] benzene sulfonamide], at THR beta-LBD, the “THRβ Emax” value was “B (75~90)” and the EC50 is 2 to 20 nM. Moreover, at THR alpha-LBD, the “THRα Emax” value is given as “B (40~85)” and the EC50 fell in the range of 200 to 1000 nM.
The like results for `CS(=O)(=O)c1cc(Oc2c(Cl)cc(-n3nc(C(F)F)c(=O)[nH]c3=O)cc2Cl)ccc1O` [Compound 95] were, in that order, “A (90~110)”, less than 2 nM, “A (85~110)” and less than 2 nM.
As for `O=c1[nH]c(=O)n(-c2cc(Cl)c(Oc3ccc(O)c(S(=O)(=O)NC4C[S+]([O-])C4)c3)c(Cl)c2)nc1C(F)F` (stereo not drawn) [Compound 96, 5-[2,6-dichloro-4-[6-(difluoromethyl)-3,5-dioxo-1,2,4-triazin-2-yl]phenoxy]-2-hydroxy-N-(1-oxothietan-3-yl) benzenesulfonamide], on THR beta-LBD, the “THRβ Emax” value is “A (90~110)” and the EC50 lay in the range of 20 to 100 nM. For the same compound, at THR alpha-LBD, the “THRα Emax” value is on record as “A (85~110)” and the half-maximal effective concentration (EC50) was 200 to 1000 nM.
For `O=c1[nH]c(=O)n(-c2cc(Cl)c(Cc3ccc(O)c(S(=O)(=O)N[C@H]4C[C@H](O)C4)c3)c(Cl)c2)nc1C(F)F` [Compound 97, 5-[[2,6-dichloro-4-[6-(difluoromethyl)-3,5-dioxo-1,2,4-triazin-2-yl]phenyl]methyl]-2-hydroxy-N-(3-hydroxycyclobutyl)benzenesulfonamide], at THR beta-LBD, the “THRβ Emax” value is reported as “A (90~110)” and the EC50 was less than 2 nM. For the same compound, on THR alpha-LBD, the “THRα Emax” value is “A (85~110)” and the EC50 was in the range of 2 to 200 nM.
Regarding `O=C(N[C@H]1CCOC1)c1cc(Oc2c(Cl)cc(-n3nc(C(F)F)c(=O)[nH]c3=O)cc2Cl)ccc1O` [Compound 98, (S)-5-(2,6-dichloro-4-(6-(difluoromethyl)-3,5-dioxo-4,5-dihydro-1,2,4-triazin-2 (3H)-yl)phenoxy)-2-hydroxy-N-(tetrahydrofuran-3-yl) benzamide], on THR beta-LBD, the “THRβ Emax” value is on record as “B (75~90)” and the concentration for a half-maximal effect (EC50) lay within 2 to 20 nM. On THR alpha-LBD, the “THRα Emax” value is given as “B (40~85)” and the 50% effective concentration (EC50) fell in the range of 2 to 200 nM.
As to `CN([C@H]1C[C@H](O)C1)S(=O)(=O)c1cc(Oc2c(Cl)cc(-n3nc(C(F)F)c(=O)[nH]c3=O)cc2Cl)ccc1O` [Compound 99], on THR beta-LBD, the “THRβ Emax” value is reported as “B (75~90)” and the EC50 is 2 to 20 nM. At THR alpha-LBD, the “THRα Emax” value is recorded as “A (85~110)” and the concentration for a half-maximal effect (EC50) fell in the range of 2 to 200 nM.
For the compound `O=c1[nH]c(=O)n(-c2cc(Cl)c(Oc3ccc(O)c(S(=O)(=O)[C@H]4C[C@@H](O)C4)c3)c(Cl)c2)nc1C(F)F` [Compound 100, 2-(3,5-dichloro-4-(4-hydroxy-3-(((1s,3s)-3-hydroxycyclobutyl)sulfonyl)phenoxy)phenyl)-6-(difluoromethyl)-1,2,4-triazine-3,5(2H,4H)-dione], at THR beta-LBD, the “THRβ Emax” value is on record as “A (90~110)” and the EC50 was less than 2 nM. At THR alpha-LBD, the “THRα Emax” value is listed as “A (85~110)” and the EC50 fell in the range of 2 to 200 nM.
Turning to `O=C(NCC1(NS(=O)(=O)c2cc(Oc3c(Cl)cc(-n4nc(C(F)F)c(=O)[nH]c4=O)cc3Cl)ncc2O)CC1)C1CC1` [Compound 101], at THR beta-LBD, the “THRβ Emax” value is “B (75~90)” and the EC50 is 2 to 20 nM. At THR alpha-LBD, the “THRα Emax” value is listed as “B (40~85)” and the EC50 was 200 to 1000 nM.
With `CNS(=O)(=O)c1cc(Oc2c(Cl)cc(-n3nc(C#N)c(=O)[nH]c3=O)cc2Cl)ncc1O` [Compound 102, 2-(2,6-dichloro-4-(6-cyano-3,5-dioxo-4,5-dihydro-1,2,4-triazin-2(3H)-yl)phenoxy)-5-hydroxy-N-methylpyridine-4-sulfonamide], on THR beta-LBD, the “THRβ Emax” value is given as “B (75~90)” and the EC50 was 2 to 20 nM. Moreover, on THR alpha-LBD, the “THRα Emax” value is listed as “A (85~110)” and the EC50 lay in the range of 200 to 1000 nM.
With `COCC1(NS(=O)(=O)c2cc(Oc3c(Cl)cc(-n4nc(C(F)F)c(=O)[nH]c4=O)cc3Cl)ncc2O)CC1` [Compound 103, 2-(2,6-dichloro-4-(6-(difluoromethyl)-3,5-dioxo-4,5-dihydro-1,2,4-triazin-2(3H)-yl)phenoxy)-5-hydroxy-N-(1-(methoxymethyl)cyclopropyl)pyridine-4-sulfonamide], on THR beta-LBD, the “THRβ Emax” value was “C (<75)” and the EC50 was in the range of 2 to 20 nM. On THR alpha-LBD, the “THRα Emax” value was “B (40~85)” and the EC50 is greater than 1000 nM.
In the case of `O=c1[nH]c(=O)n(-c2cc(Cl)c(Oc3cc(S(=O)(=O)N[C@H]4CCOC4)c(O)cn3)c(Cl)c2)nc1C(F)F` [Compound 104, (S)-2-(2,6-dichloro-4-(6-(difluoromethyl)-3,5-dioxo-4,5-dihydro-1,2,4-triazin-2(3H)-yl)phenoxy)-5-hydroxy-N-(tetrahydrofuran-3-yl)pyridine-4-sulfonamide], at THR beta-LBD, the “THRβ Emax” value is listed as “B (75~90)” and the EC50 was less than 2 nM. Also, on THR alpha-LBD, the “THRα Emax” value is recorded as “B (40~85)” and the EC50 was 2 to 200 nM.
On to `O=c1[nH]c(=O)n(-c2cc(Cl)c(Oc3cc(S(=O)(=O)NC4CC(F)(F)C4)c(O)cn3)c(Cl)c2)nc1C(F)F` [Compound 105, 2-(2,6-dichloro-4-(6-(difluoromethyl)-3,5-dioxo-4,5-dihydro-1,2,4-triazin-2(3H)-yl)phenoxy)-N-(3,3-difluorocyclobutyl)-5-hydroxypyridine-4-sulfonamide], for which, on THR beta-LBD, the “THRβ Emax” value is listed as “B (75~90)” and the EC50 was less than 2 nM. At THR alpha-LBD, the “THRα Emax” value was “A (85~110)” and the half-maximal effective concentration (EC50) is 2 to 200 nM.
On to `O=c1[nH]c(=O)n(-c2cc(Cl)c(Oc3cc(S(=O)(=O)N[C@@H]4CCOC4)c(O)cn3)c(Cl)c2)nc1C(F)F` [Compound 106, (R)-2-(2,6-dichloro-4-(6-(difluoromethyl)-3,5-dioxo-4,5-dihydro-1,2,4-triazin-2(3H)-yl)phenoxy)-5-hydroxy-N-(tetrahydrofuran-3-yl)pyridine-4-sulfonamide], for which, on THR beta-LBD, the “THRβ Emax” value is “B (75~90)” and the half-maximal effective concentration (EC50) lay in the range of 2 to 20 nM. Besides, at THR alpha-LBD, the “THRα Emax” value is reported as “A (85~110)” and the EC50 fell in the range of 2 to 200 nM.
Turning to `O=c1[nH]c(=O)n(-c2cc(Cl)c(Oc3cc(S(=O)(=O)N4CC(O)C4)c(O)cn3)c(Cl)c2)nc1C(F)F` [Compound 107, 2-(3,5-dichloro-4-((5-hydroxy-4-((3-hydroxyazetidin-1-yl)sulfonyl)pyridin-2-yl)oxy)phenyl)-6-(difluoromethyl)-1,2,4-triazine-3,5(2H,4H)-dione], at THR beta-LBD, the “THRβ Emax” value is “B (75~90)” and the EC50 lay in the range of 2 to 20 nM. Besides, on THR alpha-LBD, the “THRα Emax” value is listed as “B (40~85)” and the EC50 fell in the range of 2 to 200 nM.
The like results for `O=c1[nH]c(=O)n(-c2cc(Cl)c(Oc3cc(S(=O)(=O)N4CC[C@H](O)C4)c(O)cn3)c(Cl)c2)nc1C(F)F` [Compound 108, (S)-2-(3,5-dichloro-4-((5-hydroxy-4-((3-hydroxypyrrolidin-1-yl)sulfonyl)pyridin-2-yl)oxy)phenyl)-6-(difluoromethyl)-1,2,4-triazine-3,5(2H,4H)-dione] were, in that order, “B (75~90)”, 2 to 20 nM, “B (40~85)” and 2 to 200 nM.

For the origin of these results see US12291518B2, “Thyroid hormone receptor agonists and use thereof” (Eccogene Inc., priority 2020, dated 2025).
